In BindingDB's records for PubMed 38118394 (Second Military Medical University (Naval Medical …):
Peptide text beside a SMILES is read from it.

Molecular target: Glypican-3 (Homo sapiens, UniProt P51654)
Experiment: Binding affinity to GPC3 (unknown origin) assessed as dissociation constant by fluorescence polarization assay

Sequence of Glypican-3 (P51654 25-358 limits assumed): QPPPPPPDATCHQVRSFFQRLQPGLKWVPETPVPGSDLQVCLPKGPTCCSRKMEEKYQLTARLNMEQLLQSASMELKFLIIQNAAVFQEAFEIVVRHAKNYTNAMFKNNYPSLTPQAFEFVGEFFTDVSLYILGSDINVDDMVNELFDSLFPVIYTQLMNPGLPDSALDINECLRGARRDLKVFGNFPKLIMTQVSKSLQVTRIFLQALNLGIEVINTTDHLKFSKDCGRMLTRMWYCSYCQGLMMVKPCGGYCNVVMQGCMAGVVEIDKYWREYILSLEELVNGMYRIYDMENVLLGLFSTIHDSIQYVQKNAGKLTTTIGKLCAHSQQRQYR
Sequence of Glypican-3 (P51654 359-554 limits assumed): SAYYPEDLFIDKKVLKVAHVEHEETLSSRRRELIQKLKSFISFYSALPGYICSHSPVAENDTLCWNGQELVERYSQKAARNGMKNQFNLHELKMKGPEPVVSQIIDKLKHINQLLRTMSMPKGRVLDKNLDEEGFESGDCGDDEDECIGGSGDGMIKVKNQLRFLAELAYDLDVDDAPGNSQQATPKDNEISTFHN

| Compound | Kd [nM] |
| --- | --- |
| C=Cc1c(C)c2cc3nc(c(CC(=O)O)c4[nH]c(cc5nc(cc1[nH]2)C(C)=C5CC)c(C)c4C(=O)NCCCC(=O)N[C@@H](CC(=O)O)C(=O)N[C@@H](Cc1ccc(O)cc1)C(=O)N[C@@H](CCC(=O)O)C(=O)N[C@@H](CCSC)C(=O)N[C@@H](Cc1cnc[nH]1)C(=O)N[C@@H](CC(C)C)C(=O)N[C@@H](Cc1c[nH]c2ccccc12)C(=O)N[C@@H](Cc1c[nH]c2ccccc12)C(=O)NCC(=O)N[C@H](C(=O)N[C@@H](CCC(=O)O)C(=O)N[C@@H](CC(C)C)C(=O)O)[C@@H](C)O)[C@@H](CCC(=O)O)[C@@H]3C (HELM PEPTIDE1{[C=Cc1c(C)c2cc3nc(c(CC(=O)O)c4[nH]c(cc5nc(cc1[nH]2)C(C)=C5CC)c(C)c4C(=O)[*:2])[C@@H](CCC(=O)O)[C@@H]3C].[O=C(CCCN[*:1])[*:2]].D.Y.E.M.H.L.W.W.G.T.E.L}$$$$V2.0) | 300 |
| C=Cc1c(C)c2cc3nc(c(CC(=O)O)c4[nH]c(cc5nc(cc1[nH]2)C(C)=C5CC)c(C)c4C(=O)NCCCC(=O)N[C@@H](CCCCN)C(=O)N[C@@H](CCCCN)C(=O)N[C@@H](CCCCN)C(=O)N[C@@H](CCCNC(=N)N)C(=O)N[C@@H](CC(C)C)C(=O)N[C@@H](CC(N)=O)C(=O)N[C@H](C(=O)NCC(=O)NCC(=O)N[C@H](C(=O)N[C@@H](Cc1ccc(O)cc1)C(=O)N[C@@H](Cc1ccccc1)C(=O)N[C@@H](CC(C)C)C(=O)N[C@H](C(=O)N[C@H](C(=O)N[C@@H](CCCNC(=N)N)C(=O)N[C@@H](CCC(N)=O)C(=O)O)[C@@H](C)O)[C@@H](C)O)[C@@H](C)O)C(C)C)[C@@H](CCC(=O)O)[C@@H]3C (HELM PEPTIDE1{[C=Cc1c(C)c2cc3nc(c(CC(=O)O)c4[nH]c(cc5nc(cc1[nH]2)C(C)=C5CC)c(C)c4C(=O)[*:2])[C@@H](CCC(=O)O)[C@@H]3C].[O=C(CCCN[*:1])[*:2]].K.K.K.R.L.N.V.G.G.T.Y.F.L.T.T.R.Q}$$$$V2.0) | 300 |
| C=Cc1c(C)c2cc3nc(c(CC(=O)O)c4[nH]c(cc5nc(cc1[nH]2)C(C)=C5CC)c(C)c4C(=O)NCCCC(=O)N[C@@H](CCCNC(=N)N)C(=O)N[C@@H](CC(C)C)C(=O)N[C@@H](CC(N)=O)C(=O)N[C@H](C(=O)NCC(=O)NCC(=O)N[C@H](C(=O)N[C@@H](Cc1ccc(O)cc1)C(=O)N[C@@H](Cc1ccccc1)C(=O)N[C@@H](CC(C)C)C(=O)N[C@H](C(=O)N[C@H](C(=O)N[C@@H](CCCNC(=N)N)C(=O)N[C@@H](CCC(N)=O)C(=O)O)[C@@H](C)O)[C@@H](C)O)[C@@H](C)O)C(C)C)[C@@H](CCC(=O)O)[C@@H]3C (HELM PEPTIDE1{[C=Cc1c(C)c2cc3nc(c(CC(=O)O)c4[nH]c(cc5nc(cc1[nH]2)C(C)=C5CC)c(C)c4C(=O)[*:2])[C@@H](CCC(=O)O)[C@@H]3C].[O=C(CCCN[*:1])[*:2]].R.L.N.V.G.G.T.Y.F.L.T.T.R.Q}$$$$V2.0) | 300 |
